Type in all cases: cell-based
The test system of test [1] is human gastric adenocarcinoma cells AGS. Briefly: MTT in vitro cell proliferation inhibition experiment, AGS. Conditions: MTT method, 48 h contact between compound and cell, read-out: Antiproliferative activity (IC50, μM) AGS. How it is done:
(§1) Human liver tumor cells HepG2, human colon cancer cells HCT116, and human gastric adenocarcinoma cells AGS were purchased from the Institute of Basic Medical Sciences, Chinese Academy of Medical Sciences. The cells each were preserved and passaged in the laboratory of the present disclosure according to respective cultivation data. Each cell line was routinely inoculated in a 50 mL cell culture flask, and cultivated with a 10% fetal bovine serum-containing DMEM/IRP-1640 medium at 37° C., 5% CO2, and 100% humidity, where the medium was changed daily. When growing to a confluency of 80% to 90%, cells were digested with a mixture of trypsin and EDTA and passaged according to 1:3.
(§2) An in vitro cell activity and proliferation inhibition experiment was conducted by an MTT method to investigate an impact of a target compound on a survival activity of each cell. Cells at a logarithmic growth phase were inoculated at 5×10^3 cells (100 μL)/well in a 96-well culture plate and cultivated for 24 h, and then compound solutions with different concentrations prepared in advance were added (100 μL) to the plate. At least 3 replicate wells were set for each concentration. A solvent control group without a compound and a blank control group without a cell were set. Edge wells each were filled with 200 μL of sterilized water. […] A liquid in each well was completely removed carefully, 150 μL of DMSO was added to each well, the plate was gently shaken on a microshaker for 10 min to make a purple crystal fully dissolved, and then an absorbance value was determined at 570 nm by a microplate reader. With a cell viability of the solvent control group without a compound as 100%, a cell survival rate was calculated as follows: a cell survival rate=(an absorbance value of a compound group−an absorbance value of the blank control group)/(an absorbance value of the control group−an absorbance value of the blank control group)×100%. A half-maximal inhibitory concentration (IC50) of a compound for a cell was calculated by the Graphpad Prism 5 software.

For test [2], the system named is human colon cancer cells HCT116. As to the kind of experiment: MTT in vitro cell proliferation inhibition experiment, HCT116. The following applies: 48 h contact between compound and cell, read-out: Antiproliferative activity (IC50, μM) HCT116. How it is done: as §1, §2
The test system of test [3] is Human liver tumor cells HepG2. Briefly: MTT in vitro cell proliferation inhibition experiment, HepG2. The following applies: MTT method, 48 h contact between compound and cell, read-out: Antiproliferative activity (IC50, μM) HepG2. How it is done:
as §1, §2
On the technique in general: Tetrazolium assays rely on reduction of a dye to a coloured formazan, in cell work by metabolically active cells.

Setting [4] is: Homo sapiens, HCT-116, MTT method.

Results on 23 compounds are retold here after patent publication US12637472B2, “Benzimidazole heteroatom-containing spiro compound and medicinal use thereof” (Changzhi University, priority 2023, dated 2026).

Read-outs that look alike come from different tables or passages of the source. Some results are limits rather than exact numbers.

With `N.N.[Cl][Pt][Cl]` [Cisplatin, reference compound], the IC50 (in general, the midpoint of a concentration-inhibition curve) in test [1] turned out to be 46 µM; in test [2] (MTT method) it was 39.1 µM; in test [3] it was 43.2 µM.

As to `O=C(c1nc2ccccc2[nH]1)C1C(C2CCCCC2)C2CCCN2C12C(=O)c1ccccc1C2=O` (stereo not drawn) [Compound 1, 2-(1H-benzimidazol-2-carbonyl)-1-cyclohexyl-1,2,5,6,7,7a-hexahydrospiroinden-2,3-pyrrolizine-1,3-dione], the concentration for half-maximal inhibition (IC50) was 40.8 µM in test [1] (Homo sapiens), more than 100 µM in test [2] (setting [4]) and more than 100 µM in test [3] (Homo sapiens).

As to `O=C(c1nc2ccccc2[nH]1)C1C(c2ccc(Cl)c(F)c2)C2CCCN2C12C(=O)c1ccccc1C2=O` (stereo not drawn) [Compound 2, 2-(1H-benzimidazol-2-carbonyl)-1-(3-fluoro-4-chlorophenyl)-1,2,5,6,7,7a-hexahydrospiro[inden-2,3-pyrrolizine]-1,3-dione], the IC50 in test [1] (Homo sapiens), in test [2] (setting [4]) and in test [3] (Homo sapiens) was more than 100 µM throughout.

For `O=C(c1nc2ccccc2[nH]1)C1C(c2ccc(Cl)cc2)C2CCCN2C12C(=O)c1ccccc1C2=O` (stereo not drawn) [Compound 3, 2-(1H-benzimidazol-2-carbonyl)-1-4-chlorophenyl-1,2,5,6,7,7a-hexahydrospiroinden-2,3-pyrrolizine-1,3-dione], the IC50 in test [1] (Homo sapiens) is 30 µM; in test [2] (setting [4]), 26.2 µM; in test [3] (Homo sapiens), more than 100 µM.

With `Cc1ccc(C2C3CCCN3C3(C(=O)c4ccccc4C3=O)C2C(=O)c2nc3ccccc3[nH]2)cc1` (stereo not drawn) [Compound 4, 2-(1H-benzimidazol-2-carbonyl)-1-p-tolyl-1,2,5,6,7,7a-hexahydrospiroinden-2,3-pyrrolizine-1,3-dione], the values for the IC50 in test [1] (Homo sapiens), in test [2] (setting [4]) and in test [3] (Homo sapiens) were 17.1 µM, 54.2 µM and more than 100 µM, respectively.

For `CCOc1ccc(C2C3CCCN3C3(C(=O)c4ccccc4C3=O)C2C(=O)c2nc3ccccc3[nH]2)cc1OCC` (stereo not drawn) [Compound 5, 2-(1H-benzimidazol-2-carbonyl)-3,4-diethoxyphenyl-1,2,5,6,7,7a-hexahydrospiroinden-2,3-pyrrolizine-1,3-dione], the values for the IC50 in test [1] (Homo sapiens), in test [2] (setting [4]) and in test [3] (Homo sapiens) were 36.9 µM, 17.4 µM and 80.7 µM, respectively.

Take `O=C(c1nc2ccccc2[nH]1)C1C(c2cccc(Br)c2)C2CCCN2C12C(=O)c1ccccc1C2=O` (stereo not drawn) [Compound 6, 2-(1H-benzimidazol-2-carbonyl)-1-3-bromophenyl-1,2,5,6,7,7a-hexahydrospiroinden-2,3-pyrrolizine-1,3-dione]: the results for the IC50 in test [1] (Homo sapiens), in test [2] (setting [4]) and in test [3] (Homo sapiens) were 4 µM, 6.64 µM and 11.7 µM, respectively.

Regarding `CCOc1ccc(C2C3CCCN3C3(C(=O)c4ccccc4C3=O)C2C(=O)c2nc3ccccc3[nH]2)cc1` (stereo not drawn) [Compound 7, 2-(1H-benzimidazol-2-carbonyl)-1-(4-ethoxyphenyl)-1,2,5,6,7,7a-hexahydrospiroinden-2,3-pyrrolizine-1,3-dione], the IC50 in test [1] (Homo sapiens) amounted to 7.73 µM; in test [2] (setting [4]), 7.99 µM; in test [3] (Homo sapiens), 20.5 µM.

For `O=C(c1nc2ccccc2[nH]1)C1C(c2ccc(Br)cc2)C2CCCN2C12C(=O)c1ccccc1C2=O` (stereo not drawn) [Compound 8, 2-(1H-benzimidazol-2-carbonyl)-1-4-bromophenyl-1,2,5,6,7,7a-hexahydrospiroinden-2,3-pyrrolizine-1,3-dione], the figures for the IC50 in test [1] (Homo sapiens), in test [2] (setting [4]) and in test [3] (Homo sapiens) were 25.7 µM, 17.4 µM and more than 100 µM, respectively.

Turning to `CC(C)CC1NC2(C(=O)c3ccccc3C2=O)C(C(=O)c2nc3ccccc3[nH]2)C1C1CCCCC1` (stereo not drawn) [Compound 9, 3-(1H-benzimidazol-2-carbonyl)-4-cyclohexyl-5-isobutylspiro[inden-2,2′-pyrrolidine]-1,3-dione], the IC50 is 69 µM in test [1] (Homo sapiens), 20.3 µM in test [2] (setting [4]) and more than 100 µM in test [3] (Homo sapiens).

Consider `CC(C)CC1NC2(C(=O)c3ccccc3C2=O)C(C(=O)c2nc3ccccc3[nH]2)C1c1ccc(Cl)c(F)c1` (stereo not drawn) [Compound 10, 3-(1H-benzimidazol-2-carbonyl)-4-(3-fluoro-4-chlorophenyl)-5-isobutylspiro[inden-2,2′-pyrrolidine]-1,3-dione], for which the figures for the IC50 in test [1] (Homo sapiens), in test [2] (setting [4]) and in test [3] (Homo sapiens) were 46.7 µM, 15.7 µM and 87.7 µM, respectively.

For `CC(C)CC1NC2(C(=O)c3ccccc3C2=O)C(C(=O)c2nc3ccccc3[nH]2)C1c1ccc(Cl)cc1` (stereo not drawn) [Compound 11, 3-(1H-benzimidazol-2-carbonyl)-4-(4-chlorophenyl)-5-isobutylspiro[inden-2,2′-pyrrolidine]-1,3-dione], the IC50 in test [1] (Homo sapiens) was more than 100 µM; in test [2] (setting [4]), 30.3 µM; in test [3] (Homo sapiens), more than 100 µM.

Take `Cc1ccc(C2C(CC(C)C)NC3(C(=O)c4ccccc4C3=O)C2C(=O)c2nc3ccccc3[nH]2)cc1` (stereo not drawn) [Compound 12, 3-(1H-benzimidazol-2-carbonyl)-5-isobutyl-4-p-tolylspiro[inden-2,2′-pyrrolidine]-1,3-dione]: the IC50 is 42.7 µM in test [1] (Homo sapiens), 14.1 µM in test [2] (setting [4]) and more than 100 µM in test [3] (Homo sapiens).

For `CCOc1ccc(C2C(CC(C)C)NC3(C(=O)c4ccccc4C3=O)C2C(=O)c2nc3ccccc3[nH]2)cc1OCC` (stereo not drawn) [Compound 13], the IC50 in test [1] (Homo sapiens), in test [2] (setting [4]) and in test [3] (Homo sapiens) was more than 100 µM in each case.

As for `CC(C)CC1NC2(C(=O)c3ccccc3C2=O)C(C(=O)c2nc3ccccc3[nH]2)C1c1cccc(Br)c1` (stereo not drawn) [Compound 14, 3-(1H-benzimidazol-2-carbonyl)-4-(3-bromophenyl)-5-isobutylspiro[inden-2,2′-pyrrolidine]-1,3-dione], the IC50 in test [1] (Homo sapiens) is 7.92 µM; in test [2] (setting [4]), 5.88 µM; in test [3] (Homo sapiens), 11.7 µM.

Consider `CCOc1ccc(C2C(CC(C)C)NC3(C(=O)c4ccccc4C3=O)C2C(=O)c2nc3ccccc3[nH]2)cc1` (stereo not drawn) [Compound 15, 3-(1H-benzimidazol-2-carbonyl)-4-(4-ethoxyphenyl)-5-isobutylspiro[inden-2,2′-pyrrolidine]-1,3-dione], for which the IC50 in test [1] (Homo sapiens) was 85.7 µM; in test [2] (setting [4]), 28.8 µM; in test [3] (Homo sapiens) it was more than 100 µM.

For the compound `CC(C)CC1NC2(C(=O)c3ccccc3C2=O)C(C(=O)c2nc3ccccc3[nH]2)C1c1ccc(Br)cc1` (stereo not drawn) [Compound 16, 3-(1H-benzimidazol-2-carbonyl)-4-(4-bromophenyl)-5-isobutylspiro[inden-2,2′-pyrrolidine]-1,3-dione], the IC50 in test [1] (Homo sapiens) was determined as 20.9 µM; in test [2] (setting [4]) it was 10.8 µM; in test [3] (Homo sapiens), 49.7 µM.

With `CCC(C)C1NC2(C(=O)c3ccccc3C2=O)C(C(=O)c2nc3ccccc3[nH]2)C1C1CCCCC1` (stereo not drawn) [Compound 17, 3-(1H-benzimidazol-2-carbonyl)-5-sec-butyl-4-cyclohexylspiro[inden-2,2′-pyrrolidine]-1,3-dione], the IC50 in test [1] (Homo sapiens) was found to be 14.7 µM; in test [2] (setting [4]) it was 11.1 µM; in test [3] (Homo sapiens), 16.2 µM.

As to `CCC(C)C1NC2(C(=O)c3ccccc3C2=O)C(C(=O)c2nc3ccccc3[nH]2)C1c1ccc(Cl)c(F)c1` (stereo not drawn) [Compound 18, 3-(1H-benzimidazol-2-carbonyl)-5-sec-butyl-4-(3-fluoro-4-chlorophenyl)spiro[inden-2,2′-pyrrolidine]-1,3-dione], the IC50 in test [1] (Homo sapiens), in test [2] (setting [4]) and in test [3] (Homo sapiens) was more than 100 µM in each case.

On to `CCC(C)C1NC2(C(=O)c3ccccc3C2=O)C(C(=O)c2nc3ccccc3[nH]2)C1c1ccc(Cl)cc1` (stereo not drawn) [Compound 19, 3-(1H-benzimidazol-2-carbonyl)-5-sec-butyl-4-(4-chlorophenyl)spiro[inden-2,2′-pyrrolidine]-1,3-dione], for which the values for the IC50 in test [1] (Homo sapiens), in test [2] (setting [4]) and in test [3] (Homo sapiens) were 87.5 µM, 42.1 µM and more than 100 µM, respectively.

`CCC(C)C1NC2(C(=O)c3ccccc3C2=O)C(C(=O)c2nc3ccccc3[nH]2)C1c1ccc(C)cc1` (stereo not drawn) [Compound 20, 3-(1H-benzimidazol-2-carbonyl)-5-sec-butyl-4-p-tolylspiro[inden-2,2′-pyrrolidine]-1,3-dione]: the figures for the IC50 in test [1] (Homo sapiens), in test [2] (setting [4]) and in test [3] (Homo sapiens) were 94 µM, 51.3 µM and more than 100 µM, respectively.

With `CCOc1ccc(C2C(C(C)CC)NC3(C(=O)c4ccccc4C3=O)C2C(=O)c2nc3ccccc3[nH]2)cc1OCC` (stereo not drawn) [Compound 21], the IC50 in test [1] (Homo sapiens) is 33.8 µM; in test [2] (setting [4]), 35.5 µM; in test [3] (Homo sapiens), 41.3 µM.

`CCC(C)C1NC2(C(=O)c3ccccc3C2=O)C(C(=O)c2nc3ccccc3[nH]2)C1c1cccc(Br)c1` (stereo not drawn) [Compound 22, 3-benzimidazol-2-carbonyl-4-(3-bromophenyl)-5-sec-butylspiro[inden-2,2′-pyrrolidine]-1,3-dione]: the IC50 in test [1] (Homo sapiens) was 4.78 µM; in test [2] (setting [4]), 5.67 µM; in test [3] (Homo sapiens) it was 3.45 µM.
